The results in this text go back to patent US9808445B2, “Factor IXa inhibitors” (Merck Sharp & Dohme Corp., priority 2014, dated 2017).

SMILES strings stand for the structures. pIC50: −log10 of the molar value. Counter-ions that a name gives are not always drawn.

In general, pIC50 refers to −log10 of the IC50, conventionally taken in molar units. A low value points to a large IC50.

Chain of human factor IXa (P00740 227-461): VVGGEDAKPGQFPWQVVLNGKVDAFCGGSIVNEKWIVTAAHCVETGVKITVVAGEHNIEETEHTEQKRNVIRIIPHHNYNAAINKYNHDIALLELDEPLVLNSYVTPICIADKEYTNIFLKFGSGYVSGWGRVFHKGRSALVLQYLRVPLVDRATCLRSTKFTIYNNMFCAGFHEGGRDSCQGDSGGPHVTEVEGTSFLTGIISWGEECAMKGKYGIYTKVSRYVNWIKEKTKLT
Chain of human factor IXa (P00740 47-191 partner): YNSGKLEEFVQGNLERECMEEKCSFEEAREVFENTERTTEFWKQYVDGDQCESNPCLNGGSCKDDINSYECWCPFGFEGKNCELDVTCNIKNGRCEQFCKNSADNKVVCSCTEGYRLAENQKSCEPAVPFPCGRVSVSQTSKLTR

This experiment concerns the target human factor IXa (Homo sapiens (Human), UniProt P00740). The experiment is described as follows: Determination of inhibitory activity against factor IXa (fluorogenic substrate SPECTROFLUOR FIXa). The following applies: Factor IXa enzyme assay human. The experiment is classed as biochemical. The method, then:
Inhibitory activity against factor IXa was tested using the substrate SPECTROFLUOR FIXa (american diagnostica inc.; 500 West Avenue, Stamford, Conn. 06902 USA; Pr. No. 299F) and human factor IXa (american diagnostica inc.; Pr. No. 449b). Test substances were dissolved in buffer A (50 mM α,α,α-tris (hydroxymethyl) methylamine (Tris), 100 mM NaCl, 5 mM CaCl2, 15% (v/v) ethylene glycol, pH 8.0) were mixed with factor IXa (0.1 μg/ml final concentration). The enzyme reaction was started by addition of SPECTROFLUOR FIXa (100 μM final concentration). After incubation for 60 minutes at room temperature, the reaction was stopped by the addition of 20% (v/v) acetic acid solution, and then the fluorescence value was measured (Excitation Wavelength: 355 nm, Emission Wavelength; 460 nm) in a microtiter plate reader (ARVO 1420 Multilabel Counter; PerkinElmer).
The IC50 was calculated from a dilution series of the test substance with the aid of the software, Symyx Assay Explorer (Symyx Technologies, Inc.).
On to `Nc1noc2c(N3C[C@@H]4CC[C@H]3[C@@H]4NC(=O)c3ccc(-n4cnc5ccccc54)cc3Cl)ncc(Cl)c12` (relative stereo) [Example 21, N-((1S*,4S*,7R*)-2-(3-Amino-4-chloroisoxazolo[5,4-c]pyridin-7-yl)-2-azabicyclo[2.2.1]heptan-7-yl)-4-(1H-benzo[d]imidazol-1-yl)-2-chlorobenzamide], for which the pIC50 is at least 7.00. As to `Nc1noc2c(N3C[C@@H]4CC[C@H]3[C@@H]4NC(=O)c3ccc(-n4cnc5ncccc54)cc3Cl)ncc(Cl)c12` (relative stereo) [Example 22, N-((1S*,4S*,7R*)-2-(3-Amino-4-chloroisoxazolo[5,4-c]pyridin-7-yl)-2-azabicyclo[2.2.1]heptan-7-yl)-2-chloro-4-(1H-imidazo[4,5-b]pyridin-1-yl)benzamide], the negative logarithm of the IC50 (pIC50) was at least 7.00. Turning to `Nc1noc2c(N3C[C@@H]4CC[C@H]3[C@@H]4NC(=O)c3ccc(-c4ccc(=O)n(CCO)c4)cc3Cl)ncc(Cl)c12` (relative stereo) [Example 23, N-((1S*,4S*,7R*)-2-(3-Amino-4-chloroisoxazolo[5,4-c]pyridin-7-yl)-2-azabicyclo[2.2.1]heptan-7-yl)-2-chloro-4-(1-(2-hydroxyethyl)-6-oxo-1,6-dihydropyridin-3-yl)benzamide], the negative-log IC50 (pIC50) was at least 7.00. The result for `Cn1nc(-c2ccc(C(=O)N[C@@H]3[C@H]4CC[C@@H]3N(c3ncc(Cl)c5c(N)noc35)C4)c(Cl)c2)ccc1=O` (relative stereo) [Example 24, N-((1S*,4S*,7R*)-2-(3-Amino-4-chloroisoxazolo[5,4-c]pyridin-7-yl)-2-azabicyclo[2.2.1]heptan-7-yl)-2-chloro-4-(1-methyl-6-oxo-1,6-dihydropyridazin-3-yl)benzamide] reads at least 7.00. In turn, `Cn1cc(-c2ccc(C(=O)N[C@@H]3[C@H]4CC[C@@H]3N(c3nc(C#N)cc5c(N)noc35)C4)c(Cl)c2)ccc1=O` (relative stereo) [Example 25, N-((1S*,4S*,7R*)-2-(3-Amino-5-cyanoisoxazolo[5,4-c]pyridin-7-yl)-2-azabicyclo[2.2.1]heptan-7-yl)-2-chloro-4-(1-methyl-6-oxo-1,6-dihydropyridin-3-yl)benzamide] had a pIC50 of at least 7.00.

As to `Cc1cc2c(N)noc2c(N2C[C@@H]3CC[C@H]2[C@@H]3NC(=O)c2ccc(-n3cnnc3C(F)(F)F)cc2Cl)n1` (relative stereo) [Example 26, N-((1S*,4S*,7R*)-2-(3-Amino-5-methylisoxazolo[5,4-c]pyridin-7-yl)-2-azabicyclo[2.2.1]heptan-7-yl)-2-chloro-4-(3-(trifluoromethyl)-4H-1,2,4-triazol-4-yl)benzamide], the pIC50 was at least 7.00. The result for `Cc1cc2c(N)noc2c(N2C[C@@H]3CC[C@H]2[C@@H]3NC(=O)c2ccc(-c3cnc(=O)n(C)c3)cc2Cl)n1` (relative stereo) [Example 27, N-((1S*,4S*,7R*)-2-(3-Amino-5-methylisoxazolo[5,4-c]pyridin-7-yl)-2-azabicyclo[2.2.1]heptan-7-yl)-2-chloro-4-(1-methyl-2-oxo-1,2-dihydropyrimidin-5-yl)benzamide TFA salt] reads at least 7.00; that for `Cn1ncn(-c2ccc(C(=O)N[C@@H]3[C@H]4CC[C@@H]3N(c3ncc(Cl)c5c(N)noc35)C4)c(Cl)c2)c1=O` (relative stereo) [Example 28, N-((1S*,4S*,7R*)-2-(3-Amino-4-chloroisoxazolo[5,4-c]pyridin-7-yl)-2-azabicyclo[2.2.1]heptan-7-yl)-2-chloro-4-(1-methyl-5-oxo-1,5-dihydro-4H-1,2,4-triazol-4-yl)benzamide], at least 7.00; that for `Cc1ncn(-c2ccc(C(=O)NC3C4CCC3N(c3ncc(Cl)c5c(N)noc35)C4)c(Cl)c2)n1` (single isomer, unassigned) [Example 7.1, N-((1S*,4S*,7R*)-2-(3-Amino-4-chloroisoxazolo[5,4-c]pyridin-7-yl)-2-azabicyclo[2.2.1]heptan-7-yl)-2-chloro-4-(3-methyl-1H-1,2,4-triazol-1-yl)benzamide], at least 7.00.

Compound `Cc1ncn(-c2ccc(C(=O)NC3C4CCC3N(c3ncc(Cl)c5c(N)noc35)C4)c(Cl)c2)n1` (single isomer, unassigned) [Example 7.2, N-((1S*,4S*,7R*)-2-(3-Amino-4-chloroisoxazolo[5,4-c]pyridin-7-yl)-2-azabicyclo[2.2.1]heptan-7-yl)-2-chloro-4-(3-methyl-1H-1,2,4-triazol-1-yl)benzamide] gave a negative-log IC50 (pIC50) of 6.00 to 7.00. `Nc1noc2c(N3CC4CCC3C4NC(=O)c3ccc(-n4cncn4)cc3Cl)ncc(Cl)c12` (single isomer, unassigned) [Example 8.1, N-((1S*,4S*,7R*)-2-(3-Amino-4-chloroisoxazolo[5,4-c]pyridin-7-yl)-2-azabicyclo[2.2.1]heptan-7-yl)-2-chloro-4-(1H-1,2,4-triazol-1-yl)benzamide] gave a pIC50 of at least 7.00.

For `Nc1noc2c(N3CC4CCC3C4NC(=O)c3ccc(-n4cncn4)cc3Cl)ncc(Cl)c12` (single isomer, unassigned) [Example 8.2, N-((1S*,4S*,7R*)-2-(3-Amino-4-chloroisoxazolo[5,4-c]pyridin-7-yl)-2-azabicyclo[2.2.1]heptan-7-yl)-2-chloro-4-(1H-1,2,4-triazol-1-yl)benzamide], the negative-log IC50 (pIC50) was 6.00 to 7.00. With `Cc1cc2c(N)noc2c(N2CC3CCC2C3NC(=O)c2ccc(-n3cnc(C)n3)cc2Cl)n1` (single isomer, unassigned) [Example 11.1, N-((1S*,4S*,7R*)-2-(3-Amino-5-methylisoxazolo[5,4-c]pyridin-7-yl)-2-azabicyclo[2.2.1]heptan-7-yl)-2-chloro-4-(3-methyl-1H-1,2,4-triazol-1-yl)benzamide], the pIC50 was 6.00 to 7.00. On to `Cc1cc2c(N)noc2c(N2CC3CCC2C3NC(=O)c2ccc(-n3cnc(C)n3)cc2Cl)n1` (single isomer, unassigned) [Example 11.2, N-((1S*,4S*,7R*)-2-(3-Amino-5-methylisoxazolo[5,4-c]pyridin-7-yl)-2-azabicyclo[2.2.1]heptan-7-yl)-2-chloro-4-(3-methyl-1H-1,2,4-triazol-1-yl)benzamide], for which the negative logarithm of the IC50 (pIC50) is at least 7.00. Consider `Cc1ncn(-c2cnc(C(=O)N[C@@H]3[C@H]4CC[C@@H]3N(c3ncc(Cl)c5c(N)noc35)C4)c(Cl)c2)n1` (single isomer, unassigned) [Example 29, N-((1S*,4S*,7R*)-2-(3-Amino-4-chloroisoxazolo[5,4-c]pyridin-7-yl)-2-azabicyclo[2.2.1]heptan-7-yl)-3-chloro-5-(3-methyl-1H-1,2,4-triazol-1-yl)picolinamide], for which the negative-log IC50 (pIC50) was at least 7.00.
